Tests used:
[1] = biological target: T1, HsTIM (human triosephosphate isomerase) (Homo sapiens, UniProt P60174); test: residual activity after […] h preincubation; alpha-GPDH coupled assay, NADH at […] nm; format: biochemical; conditions: 5 µg/mL enzyme preincubated with compound 2 h at 36 °C, 10% DMSO, 10 mM EDTA, pH 7.4; assay 1 mM GAP, 25 °C
T1 construct: gene TPI1

[2] = biological target: T2, TbTIM (triosephosphate isomerase from Trypanosoma brucei) (Trypanosoma brucei, UniProt P04789); test: as above; format: biochemical; conditions: read-out: I50
T2 construct: homodimer; 250 residues per monomer
T2 sequence (P04789 whole entry): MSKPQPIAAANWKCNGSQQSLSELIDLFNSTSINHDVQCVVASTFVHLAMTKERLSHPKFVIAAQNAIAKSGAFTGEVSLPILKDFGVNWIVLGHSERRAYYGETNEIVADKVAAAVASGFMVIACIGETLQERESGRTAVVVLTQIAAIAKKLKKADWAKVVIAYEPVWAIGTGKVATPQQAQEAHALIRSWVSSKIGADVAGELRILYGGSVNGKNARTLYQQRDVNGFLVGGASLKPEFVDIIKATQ

T1 sequence (P60174 2-249): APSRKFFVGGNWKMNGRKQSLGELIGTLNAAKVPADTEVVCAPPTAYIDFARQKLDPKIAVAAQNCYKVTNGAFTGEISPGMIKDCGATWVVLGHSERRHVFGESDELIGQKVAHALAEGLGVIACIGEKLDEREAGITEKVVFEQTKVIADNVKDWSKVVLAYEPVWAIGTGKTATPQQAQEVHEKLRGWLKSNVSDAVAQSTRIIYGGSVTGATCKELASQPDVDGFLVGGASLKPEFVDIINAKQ

SMILES | % inactivation at 100 μM [1] | IC50 [2]
COC(=O)Nc1nc2cc(Oc3cccc4ccccc34)ccc2[nH]1 [compound 1, Methyl(5-(naphthalen-1-yloxy)-1H-benzimidazol-2-yl)carbamate] | 12% | 84 µM
COC(=O)Nc1nc2cc(Oc3ccc(Cl)c4ccccc34)ccc2[nH]1 [compound 2, Methyl(5-((4-chloronaphthalen-1-yl)oxy)-1H-benzimidazol-2-yl)carbamate] | 23% | 82 µM
CSc1nc2ccc(C(=O)N/N=C/c3ccc([N+](=O)[O-])o3)cc2[nH]1 [compound 3, (E)-2-(Methylthio)-N′-((5-nitrofuran-2-yl)methylene)-1H-benzimidazole-5-carbohydrazide] |  | 73 µM
